pIC50: −log10 of the molar value.
Biological target: Arachidonate 5-lipoxygenase (Rattus norvegicus)
Experiment: Ability to inhibit 5-lipoxygenase in rat

- pIC50: 4.71
Compound: CN1C[C@@H](c2cccc(OCc3ccc4ccccc4n3)c2)OC1=O

From BindingDB's records for doi:10.1021/jm00394a026 (Wyeth Laboratories, 1987)
